Columns and labels:
Assay in all cases: relative viability (nuclei count vs DMSO), 5 days (fraction); higher = more cells survive
Carboplatin + Foretinib = compound: C1CC(C1)(C(=O)O)C(=O)O.[NH2-].[NH2-].[Pt+2] [Carboplatin] + COc1cc2c(Oc3ccc(NC(=O)C4(C(=O)Nc5ccc(F)cc5)CC4)cc3F)ccnc2cc1OCCCN1CCOCC1 [Foretinib] (partner 0.25 µM)
In short: (§1)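 Relative viability is defined as nuclei in treated wells over nuclei in vehicle wells. Duplicate plates were run and medians reported. Lung cancer cell lines in 1536-well plates were dosed by pin tool one day after seeding, with one drug or with a fixed anchor-drug dose plus five library-drug doses (not always all listed) in √10 steps, and nuclei were counted after 5 days.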

GSK126 + Luminespib = compound: CC[C@H](C)N1C=C(C2=C(C=C(C=C21)C3=CN=C(C=C3)N4CCNCC4)C(=O)NCC5=C(C=C(NC5=O)C)C)C [GSK126] + CCNC(=O)c1noc(-c2cc(C(C)C)c(O)cc2O)c1-c1ccc(CN2CCOCC2)cc1 [Luminespib] (partner 0.01 µM)
In short: as §1

GSK126 + Foretinib = compound: CC[C@H](C)N1C=C(C2=C(C=C(C=C21)C3=CN=C(C=C3)N4CCNCC4)C(=O)NCC5=C(C=C(NC5=O)C)C)C [GSK126] + COc1cc2c(Oc3ccc(NC(=O)C4(C(=O)Nc5ccc(F)cc5)CC4)cc3F)ccnc2cc1OCCCN1CCOCC1 [Foretinib] (partner 0.25 µM)
In short: as §1

MLN4924 + AZD7762 = compound: NS(=O)(=O)OC[C@@H]1C[C@@H](n2ccc3c(N[C@H]4CCc5ccccc54)ncnc32)C[C@@H]1O [MLN4924] + NC(=O)Nc1cc(-c2cccc(F)c2)sc1C(=O)N[C@H]1CCCNC1 [AZD7762] (partner 0.2 µM)
In short: as §1

Row | Cell Line | relative viability (Carboplatin + Foretinib; first compound 0.08 µM) | relative viability (Carboplatin + Foretinib; first compound 0.253 µM) | relative viability (Carboplatin + Foretinib; first compound 0.8 µM) | relative viability (Carboplatin + Foretinib; first compound 2.53 µM) | relative viability (Carboplatin + Foretinib; first compound 8 µM) | relative viability (GSK126 + Luminespib; first compound 0.08 µM) | relative viability (GSK126 + Luminespib; first compound 0.253 µM) | relative viability (GSK126 + Luminespib; first compound 0.8 µM) | relative viability (GSK126 + Luminespib; first compound 2.53 µM) | relative viability (GSK126 + Luminespib; first compound 8 µM) | relative viability (GSK126 + Foretinib; first compound 0.08 µM) | relative viability (GSK126 + Foretinib; first compound 0.253 µM) | relative viability (GSK126 + Foretinib; first compound 0.8 µM) | relative viability (GSK126 + Foretinib; first compound 2.53 µM) | relative viability (GSK126 + Foretinib; first compound 8 µM) | relative viability (MLN4924 + AZD7762; first compound 0.04 µM) | relative viability (MLN4924 + AZD7762; first compound 0.1265 µM) | relative viability (MLN4924 + AZD7762; first compound 0.4 µM) | relative viability (MLN4924 + AZD7762; first compound 1.265 µM) | relative viability (MLN4924 + AZD7762; first compound 4 µM)
1 | HCC-827 | 1.05 | 1.03 | 1.01 | 0.995 | 0.912 | 0.612 | 0.685 | 0.676 | 0.629 | 0.783 | 1.02 | 1.02 | 1.01 | 1.03 | 1.09 | 0.687 | 0.556 | 0.374 | 0.195 | 0.151
2 | NCI-H322M | 1.12 | 0.943 | 0.895 | 0.861 | 0.77 | 0.822 | 0.845 | 0.85 | 0.978 | 0.834 | 0.942 | 1.03 | 0.958 | 1.13 | 0.972 | 0.688 | 0.643 | 0.64 | 0.317 | 0.39
3 | NCI-H23 | 1.02 | 1.01 | 0.886 | 0.846 | 0.826 | 0.224 | 0.17 | 0.257 | 0.226 | 0.208 | 1 | 0.313 | 0.901 | 1.03 | 0.98 | 0.304 | 0.263 | 0.282 | 0.213 | 0.28
4 | NCI-H358 | 0.736 | 0.783 | 0.721 | 0.764 | 0.651 | 0.39 | 0.382 | 0.366 | 0.422 | 0.283 | 0.742 | 0.629 | 0.66 | 0.859 | 0.786 | 0.518 | 0.472 | 0.369 | 0.144 | 0.215
5 | NCI-H1944 | 0.971 | 0.855 | 0.854 | 0.789 | 0.601 | 0.873 | 0.72 | 0.621 | 0.678 | 0.923 | 0.918 | 0.837 | 0.854 | 0.872 | 0.956 | 0.766 | 0.627 | 0.39 | 0.186 | 0.123
6 | NCI-H1755 | 1.01 | 0.897 | 0.899 | 0.929 | 0.86 | 0.435 | 0.519 | 0.58 | 0.381 | 0.501 | 1.02 | 0.975 | 0.962 | 0.924 | 0.968 | 0.604 | 0.682 | 0.666 | 0.411 | 0.255
7 | A-427 | 1.16 | 1.15 | 1.03 | 0.992 | 1.16 | 1.29 | 0.87 | 0.82 | 0.884 | 0.769 | 1.31 | 0.999 | 1.07 | 1.1 | 1.13 | 0.502 | 0.324 | 0.366 | 0.172 | 0.217
8 | PC-14 | 0.945 | 0.885 | 0.942 | 0.905 | 0.694 | 0.163 | 0.144 | 0.174 | 0.155 | 0.114 | 0.914 | 0.886 | 0.924 | 0.908 | 0.918 | 0.335 | 0.405 | 0.347 | 0.166 | 0.127
9 | LOU-NH91 | 0.991 | 0.998 | 0.955 | 0.921 | 0.922 | 0.303 | 0.337 | 0.325 | 0.364 | 0.357 | 0.991 | 0.953 | 0.892 | 0.974 | 0.969 | 0.785 | 0.95 | 0.823 | 0.645 | 0.459
10 | BEN | 0.778 | 0.654 | 0.69 | 0.658 | 0.589 | 0.465 | 0.681 | 0.222 | 0.419 | 0.342 | 0.712 | 0.767 | 0.575 | 0.683 | 0.607 | 0.66 | 0.76 | 0.561 | 0.321 | 0.264
11 | NCI-H2085 | 1.05 | 0.933 | 1.1 | 0.899 | 0.691 | 0.52 | 0.514 | 0.414 | 0.406 | 0.623 | 1.09 | 1.04 | 0.855 | 1.12 | 1.24 | 0.989 | 0.972 | 1.07 | 0.941 | 0.603
12 | LCLC-103H | 0.752 | 0.83 | 0.806 | 0.703 | 0.632 | 1.16 | 0.931 | 0.908 | 1.01 | 0.994 | 0.86 | 0.744 | 0.738 | 0.926 | 0.814 | 0.831 | 0.833 | 0.7 | 0.239 | 0.247
13 | ABC-1 | 1.28 | 1.09 | 1.1 | 0.769 | 0.398 | 0.737 | 0.449 | 0.575 | 1.13 | 0.955 | 1.31 | 1.15 | 0.955 | 1.14 | 0.959 | 0.985 | 1.17 | 0.52 | 0.23 | 0.258
14 | H3255 | 0.905 | 0.872 | 0.875 | 0.898 | 0.836 | 0.988 | 0.968 | 0.898 | 0.95 | 1.01 | 1.07 | 0.887 | 0.894 | 0.987 | 0.983 | 0.784 | 0.797 | 0.457 | 0.267 | 0.33
15 | EMC-BAC-2 | 1.07 | 1.06 | 1.02 | 1.03 | 0.898 | 1.19 | 1.17 | 1.17 | 1.11 | 1.24 | 1.07 | 0.964 | 0.706 | 0.98 | 1.03 | 1.06 | 0.869 | 0.377 | 0.224 | 0.288
